By IC50 is commonly meant the concentration at which inhibition is half-maximal.

In assay [1] the target is T1, Prostaglandin G/H synthase 1 (Ovis aries, UniProt P05979).
T1 sequence (P05979 whole entry): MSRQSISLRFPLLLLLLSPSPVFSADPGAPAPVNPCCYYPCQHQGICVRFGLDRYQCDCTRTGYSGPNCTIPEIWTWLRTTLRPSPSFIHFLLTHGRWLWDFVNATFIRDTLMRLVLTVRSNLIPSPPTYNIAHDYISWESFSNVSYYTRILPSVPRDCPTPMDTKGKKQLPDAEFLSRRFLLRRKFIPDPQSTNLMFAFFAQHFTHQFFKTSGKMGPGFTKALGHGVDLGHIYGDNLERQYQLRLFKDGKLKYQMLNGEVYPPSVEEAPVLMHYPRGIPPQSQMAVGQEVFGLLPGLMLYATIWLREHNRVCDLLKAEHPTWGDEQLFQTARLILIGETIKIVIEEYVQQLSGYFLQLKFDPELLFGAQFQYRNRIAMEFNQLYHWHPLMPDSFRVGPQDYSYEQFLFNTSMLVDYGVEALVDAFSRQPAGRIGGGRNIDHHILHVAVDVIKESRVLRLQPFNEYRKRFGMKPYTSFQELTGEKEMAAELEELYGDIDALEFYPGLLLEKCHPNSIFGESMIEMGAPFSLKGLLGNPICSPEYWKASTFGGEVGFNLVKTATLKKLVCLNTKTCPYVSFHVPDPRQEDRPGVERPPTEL
The experiment in a line: Inhibition of ovine COX-1 assessed as inhibition of [14C]arachidonic acid to radiolabeled prostaglandins preincubated for 20 mins by TLC-based assay.

The target of assay [2] is T2, Prostaglandin G/H synthase 2 (Mus musculus, UniProt Q05769).
T2 sequence (Q05769 whole entry): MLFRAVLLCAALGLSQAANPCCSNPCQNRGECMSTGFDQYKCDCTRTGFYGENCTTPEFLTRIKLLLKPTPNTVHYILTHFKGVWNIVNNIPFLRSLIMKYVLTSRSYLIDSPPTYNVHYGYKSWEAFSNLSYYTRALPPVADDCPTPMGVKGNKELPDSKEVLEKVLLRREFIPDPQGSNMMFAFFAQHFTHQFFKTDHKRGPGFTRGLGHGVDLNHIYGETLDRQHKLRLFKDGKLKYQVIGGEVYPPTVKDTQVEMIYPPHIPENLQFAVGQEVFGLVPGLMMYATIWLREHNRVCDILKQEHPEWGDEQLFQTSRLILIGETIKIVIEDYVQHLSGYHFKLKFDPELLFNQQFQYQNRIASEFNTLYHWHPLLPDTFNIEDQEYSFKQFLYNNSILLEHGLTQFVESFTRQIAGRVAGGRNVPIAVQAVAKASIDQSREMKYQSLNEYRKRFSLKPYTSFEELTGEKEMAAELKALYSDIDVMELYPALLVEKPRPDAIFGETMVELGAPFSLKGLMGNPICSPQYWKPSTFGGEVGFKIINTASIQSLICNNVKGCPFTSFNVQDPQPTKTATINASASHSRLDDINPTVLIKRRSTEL
The experiment in a line: Inhibition of mouse COX-2 assessed as inhibition of [14C]arachidonic acid to radiolabeled prostaglandins preincubated for 20 mins by TLC-based assay.

The target in assay [3] is T3, Prostaglandin G/H synthase 2 (Homo sapiens, UniProt P35354).
T3 sequence (P35354 whole entry): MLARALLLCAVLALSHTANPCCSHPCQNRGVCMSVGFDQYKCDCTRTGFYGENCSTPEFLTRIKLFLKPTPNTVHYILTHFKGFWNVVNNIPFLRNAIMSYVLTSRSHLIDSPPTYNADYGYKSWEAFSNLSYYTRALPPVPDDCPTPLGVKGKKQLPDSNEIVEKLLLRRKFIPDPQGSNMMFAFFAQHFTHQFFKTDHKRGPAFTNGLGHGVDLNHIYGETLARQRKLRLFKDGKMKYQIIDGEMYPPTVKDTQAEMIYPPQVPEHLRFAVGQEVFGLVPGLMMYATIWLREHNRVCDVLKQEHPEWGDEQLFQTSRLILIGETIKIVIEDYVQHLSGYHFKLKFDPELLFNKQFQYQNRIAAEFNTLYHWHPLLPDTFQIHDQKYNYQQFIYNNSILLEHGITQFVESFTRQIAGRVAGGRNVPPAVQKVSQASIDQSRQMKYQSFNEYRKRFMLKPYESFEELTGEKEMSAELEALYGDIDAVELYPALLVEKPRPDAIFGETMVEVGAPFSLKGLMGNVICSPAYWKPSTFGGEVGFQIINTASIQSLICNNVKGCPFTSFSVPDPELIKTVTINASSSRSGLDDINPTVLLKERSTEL
The assay is described as follows: Inhibition of COX-2 in human 1483 cells by cell-based assay.

Assay [4] deals with Prostaglandin G/H synthase 1 (Homo sapiens, UniProt P23219). The assay is described as follows: Inhibition of COX-1 in human OVCAR3 cells by cell-based assay. On the set-up: species or system OVCAR-3.
In assay [5] the target is T4, Prostaglandin G/H synthase 2 (Mus musculus) (UniProt Q05769).
T4 sequence (whole entry): T2 sequence (Q05769 whole entry)
The assay is described as follows: Inhibition of mouse COX-2 assessed as inhibition of [14C]arachidonic acid to radiolabeled prostaglandins measured as residual activity preincubated for 20 mins by TLC-based assay.

Chain of Prostaglandin G/H synthase 1 (Homo sapiens, UniProt P23219) (P23219 whole entry): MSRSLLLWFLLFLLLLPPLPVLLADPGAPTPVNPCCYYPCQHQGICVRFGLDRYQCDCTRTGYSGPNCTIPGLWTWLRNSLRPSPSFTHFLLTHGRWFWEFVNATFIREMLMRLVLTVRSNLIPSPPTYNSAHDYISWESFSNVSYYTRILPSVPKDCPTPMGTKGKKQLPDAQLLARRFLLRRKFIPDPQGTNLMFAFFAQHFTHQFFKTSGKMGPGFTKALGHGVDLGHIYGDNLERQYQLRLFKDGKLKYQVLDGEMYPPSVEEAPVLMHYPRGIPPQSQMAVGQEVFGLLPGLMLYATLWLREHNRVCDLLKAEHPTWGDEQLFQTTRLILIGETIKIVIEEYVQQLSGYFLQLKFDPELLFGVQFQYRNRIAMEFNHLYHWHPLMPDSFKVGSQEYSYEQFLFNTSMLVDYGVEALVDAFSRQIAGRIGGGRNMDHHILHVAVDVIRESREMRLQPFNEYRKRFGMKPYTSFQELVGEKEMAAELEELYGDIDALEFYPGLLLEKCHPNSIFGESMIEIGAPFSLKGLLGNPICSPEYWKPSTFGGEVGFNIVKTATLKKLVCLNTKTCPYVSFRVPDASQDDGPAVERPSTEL

As to `O=C1OCC(c2ccc(OC(F)(F)F)cc2)=C1c1cccc(F)c1`, the 50% inhibitory concentration (IC50) in assay [1] and in assay [2] was more than 25 µM throughout.
For the compound `O=C1OCC(c2ccc(O)cc2)=C1c1cccc(F)c1`, the IC50 in assay [1] is 1.75 µM; in assay [2], more than 25 µM.
Turning to `Cc1ccc(C2=C(c3cccc(F)c3)COC2=O)cc1`, the IC50 in assay [1] and in assay [2] was more than 25 µM throughout.
For the compound `O=C1OCC(c2ccc(F)cc2)=C1c1ccc(Br)cc1`, the 50% inhibitory concentration (IC50) in assay [1] and in assay [2] was more than 25 µM each time.
`Cc1ccc(C2=C(c3ccc(F)cc3)C(=O)OC2)cc1`: the IC50 in assay [1] is 0.95 µM; in assay [3], more than 5 µM; in assay [4], 0.78 µM; in assay [2] it was more than 25 µM.
With `N#Cc1ccc(C2=C(c3cccc(F)c3)C(=O)OC2)cc1`, the IC50 in assay [1] is 0.47 µM; in assay [2], more than 25 µM.
`N#Cc1ccc(C2=C(c3ccnc(F)c3)C(=O)OC2)cc1`: the figures for the IC50 in assay [1] and in assay [2] were 4.4 µM and more than 25 µM, respectively.
As for `O=C1OCC(c2ccc(F)cc2)=C1c1ccc(Cl)cc1`, the IC50 in assay [1] and in assay [2] was more than 25 µM in each case.
`Cc1ccc(C2=C(c3cccc(F)c3)C(=O)OC2)cc1`: the IC50 in assay [1] and in assay [2] was more than 25 µM each time.
Consider `COc1ccc(C2=C(c3ccc(I)cc3)C(=O)OC2)cc1`, for which, in assay [5], the Activity is more than 50%. The IC50 is 0.09 µM in assay [1], more than 5 µM in assay [3], more than 4 µM in assay [4] and more than 25 µM in assay [2].
As to `O=C1OCC(c2ccccc2)=C1c1cccc(F)c1`, the IC50 in assay [1] and in assay [2] was more than 25 µM in each case.
On to `O=C1OCC(c2ccccc2F)=C1c1ccccc1`, for which the IC50 in assay [1] and in assay [2] was more than 25 µM in each case.
On to `N#Cc1ccc(C2=C(c3ccnc(Cl)c3)C(=O)OC2)cc1`, for which the half-inhibitory concentration (IC50) in assay [1] was 3 µM; in assay [2], more than 25 µM.
`COc1ccc(C2=C(c3cccc(F)c3)C(=O)OC2)cc1`: the Activity in assay [5] was more than 50%. Besides, the figures for the IC50 in assay [1] and in assay [2] were 0.36 µM and more than 25 µM, respectively.
On to `O=C1OCC(c2ccccc2F)=C1c1ccc(Cl)cc1`, for which the IC50 in assay [1] and in assay [2] was more than 25 µM in each case.
For the compound `COc1ccc(C2=C(c3ccc(C(F)(F)F)cc3)C(=O)OC2)cc1`, the IC50 in assay [1] is 1 µM; in assay [2] it was more than 25 µM.
The matching figures for `CCc1ccc(C2=C(c3cccc(F)c3)C(=O)OC2)cc1`: 9.75 µM and more than 25 µM.
As for `Cc1ccc(C2=C(c3ccc(Oc4ccc(F)cc4)cc3)C(=O)OC2)cc1`, the IC50 in assay [1] and in assay [2] was more than 25 µM throughout.
For the compound `O=C1OCC(c2ccc(F)cc2)=C1c1ccc(CO)cc1`, the IC50 in assay [1] and in assay [2] was more than 25 µM each time.
For `Cc1ccc(C2=C(c3ccccc3F)COC2=O)cc1`, the IC50 in assay [1] and in assay [2] was more than 25 µM each time.
As for `O=C1OCC(c2ccc(Cl)cc2)=C1c1ccnc(F)c1`, the IC50 in assay [1] is 15.7 µM; in assay [2], more than 25 µM.
Regarding `COc1ccc(C2=C(c3cccc(C(F)(F)F)c3)C(=O)OC2)cc1`, the IC50 in assay [1] is 8.8 µM; in assay [2], more than 25 µM.
The matching figures for `CSc1ccc(C2=C(c3ccc(F)cc3)C(=O)OC2)cc1`: more than 25 µM and more than 25 µM.
For `CN(C)c1ccc(C2=C(c3ccc(F)cc3)COC2=O)cc1`, the IC50 in assay [1] and in assay [2] was more than 25 µM throughout.
For `O=C1OCC(c2ccc(F)cc2)=C1c1ccc(O)cc1`, the half-inhibitory concentration (IC50) in assay [1] and in assay [2] was more than 25 µM throughout.
`COc1ccc(C2=C(c3ccc(F)cc3)C(=O)OC2)cc1`: in assay [5], the Activity was more than 50%. Moreover, the IC50 in assay [1] is 0.48 µM; in assay [3], more than 5 µM; in assay [4], 0.36 µM; in assay [2] it was more than 25 µM.
`COc1ccc(C2=C(c3ccc(Oc4ccc(F)cc4)cc3)C(=O)OC2)cc1`: the IC50 in assay [1] and in assay [2] was more than 25 µM throughout.
As for `CS(=O)(=O)c1ccc(C2=C(c3ccccc3)C(=O)OC2)cc1` [ROFECOXIB], the IC50 in assay [2] came out at 0.06 µM.
For `Cc1ccc(C2=C(c3ccnc(Cl)c3)C(=O)OC2)cc1`, the half-inhibitory concentration (IC50) in assay [1] was 5 µM; in assay [2], more than 25 µM.
`Cc1ccc(C2=C(c3ccc(F)cc3)COC2=O)cc1`: the IC50 in assay [1] and in assay [2] was more than 25 µM in each case.
For `CN(C)c1ccc(C2=C(c3ccccc3F)COC2=O)cc1`, the 50% inhibitory concentration (IC50) in assay [1] and in assay [2] was more than 25 µM throughout.
In the case of `O=C1OCC(c2ccccc2F)=C1c1ccc(CO)cc1`, the IC50 in assay [1] and in assay [2] was more than 25 µM in each case.
Consider `O=C1OCC(c2ccccc2)=C1c1ccccc1`, for which the IC50 was 5.9 µM in assay [1] and more than 25 µM in assay [2].
The matching figures for `COc1ccc(C2=C(c3ccnc(F)c3)C(=O)OC2)cc1`: 4.6 µM and more than 25 µM.
Regarding `COc1ccc(C2=C(c3cccc(Cl)c3F)C(=O)OC2)cc1`, the Activity in assay [5] was more than 50%. For the same compound, the IC50 in assay [1] is 0.3 µM; in assay [2] it was more than 25 µM.
`O=C1OCC(c2ccc(F)cc2)=C1c1ccccc1`: the IC50 in assay [1] and in assay [2] was more than 25 µM each time.
For the compound `O=C1OCC(c2cccc(F)c2)=C1c1ccccc1`, the IC50 in assay [1] and in assay [2] was more than 25 µM each time.
For the compound `COc1ccc(C2=C(c3ccnc(Cl)c3)C(=O)OC2)cc1`, the IC50 is 4.4 µM in assay [1] and more than 25 µM in assay [2].
Regarding `O=C1OCC(c2ccccc2)=C1c1ccccc1F`, the half-inhibitory concentration (IC50) in assay [1] and in assay [2] was more than 25 µM throughout.
For the compound `COc1ccc(C2=C(c3ccccc3)C(=O)OC2)cc1`, the IC50 in assay [1] and in assay [2] was more than 25 µM each time.
As for `COc1ccc(C2=C(c3ccc(Br)cc3)C(=O)OC2)cc1`, the concentration for half-maximal inhibition (IC50) in assay [1] was 0.12 µM; in assay [2], 0.45 µM.
For the compound `O=C1OCC(c2ccccc2)=C1c1ccc(F)cc1`, the IC50 in assay [1] was 6 µM; in assay [3], more than 5 µM; in assay [4] it was 2.8 µM; in assay [2], more than 25 µM.
With `Cc1ccc(C2=C(c3ccnc(F)c3)C(=O)OC2)cc1`, the IC50 in assay [1] and in assay [2] was more than 25 µM in each case.
Take `O=C1OCC(c2ccc(Cl)cc2)=C1c1ccnc(Cl)c1`: the 50% inhibitory concentration (IC50) in assay [1] and in assay [2] was more than 25 µM throughout.
On to `O=C1OCC(c2ccc(C(F)(F)F)cc2)=C1c1cccc(F)c1`, for which the half-maximal inhibitory concentration (IC50) in assay [1] and in assay [2] was more than 25 µM throughout.
In the case of `COc1ccc(C2=C(c3ccccc3F)C(=O)OC2)cc1`, the half-inhibitory concentration (IC50) in assay [1] and in assay [2] was more than 25 µM each time.
For `O=C1OCC(c2ccccc2F)=C1c1ccc(Br)cc1`, the IC50 in assay [1] and in assay [2] was more than 25 µM throughout.
Regarding `Cc1ccc(C2=C(c3ccccc3F)C(=O)OC2)cc1`, the IC50 in assay [1] is 1 µM; in assay [2], more than 25 µM.
In the case of `O=C1OCC(c2ccccc2)=C1c1ccc(Oc2ccc(F)cc2)cc1`, the IC50 in assay [1] and in assay [2] was more than 25 µM in each case.

Values taken from ChEMBL document CHEMBL3351312, “Design of Fluorine-Containing 3,4-Diarylfuran-2(5H)-ones as Selective COX-1 Inhibitors” (ACS Med Chem Lett, 2014).
